# Literature values in patent publication US6410601B1, “Histochrome and its therapeutic use in acute myocardial infarction and ischemic heart disease” (priority 1998, dated 2002).
# Tested on: patients with acute myocardial infarction
# Details: 10 mg/kg intravenously before thrombolytic reperfusion
structure (smiles),measurement,setting,value
CCc1nc(C)ccc1O [Emoxipin],reduction of the size of the asynergic zone in the myocardium,"26 patients, control group 39.2%",59.5%
same,frequency of myocardial arrhythmias,control 28.1%,13.9%
same,lipid peroxidation in terms of malonic dialdehyde concentration,monotherapy 309%,60%
